Source: US20020086278A1, “CHROMOGENIC MEDIA CONTAINING BLOOD OR HEMIN” (priority 1999, published 2002)
Like-named read-outs stand apart in the source and are kept apart here.

Assays:
Type in all cases: cell-based
55 strains = assay: Example 3: color, hemolytic activity and growth over all 55 strains
Text: Steers, E. et al., Antibiot.

[1] = tested on: Aeromonas hydrophilia (aehy); assay: Example 3: colony color on chromogenic TSA II with 5% sheep blood (chromogen in medium); conditions: for Colony Color: CO2, 21 h
[2] = tested on: Branhamella catarrhalis (brca); assay: as above; conditions: for Colony Color: CO2, 21 h
Candida albicans (caal) = assay: as above; conditions: for Colony Color: caal 10231, 24 h
[3] = tested on: Citrobacter freundii (cifr); assay: as above; conditions: for Colony Color: CO2, 21 h
[4] = tested on: Entercoccus faecalis (enfa); assay: as above
E. faecium (enfu) = assay: as above; conditions: for Colony Color: enfu 49032, 21 h
[5] = tested on: E. coli (non-O157) (esco)
[6] = tested on: Klebsiella pneumoniae (klpn); assay: Example 3: colony color on chromogenic TSA II with 5% sheep blood (chromogen in medium)
[7] = tested on: Pseudomonas aeruginosa (psae); assay: as above; conditions: for Colony Color: CO2, 21 h
Salmonella spp. (sasp) = conditions: for Colony Color: CO2, 21 h
[8] = tested on: Serratia marcescens (sema); assay: Example 3: colony color on chromogenic TSA II with 5% sheep blood (chromogen in medium); conditions: for Colony Color: sema 13880, CO2, 21 h
[9] = tested on: Streptococcus agalactiae (stag); assay: as above
[10] = tested on: Staphylococcus aureus (stau); assay: as above
[11] = tested on: Staphylococcus Coag Neg (step); assay: as above; conditions: for Colony Color: 21 h
S. milleri (stmi) = assay: as above; conditions: for Colony Color: stmi 6249, 21 h
S. pneumoniae (stpn) = assay: as above
S pyogenes (stpy) = assay: as above; conditions: for Colony Color: 21 h
cakr 34135 = assay: as above; conditions: CO2, 21 h
milu 9341 = assay: as above; conditions: CO2, 21 h
[12] = chromogenic TSA II with 5% Sheep Blood, 0.1 g/l, 3 strains tested
[13] = chromogenic TSA II with 5% Sheep Blood, 0.1 g/l, 2 strains tested
[14] = chromogenic TSA II with 5% Sheep Blood, 0.1 g/l, 6 strains tested
[15] = chromogenic TSA II with 5% Sheep Blood, 0.1 g/l, 1 strain tested
[16] = chromogenic TSA II with 5% Sheep Blood, 0.1 g/l, 5 strains tested

CC(C)S[C@@H]1O[C@H](CO)[C@H](O)[C@H](O)[C@H]1O [IPTG, Isopropyl-β-D-thiogalactopyranoside]
reduce the reactivity: Effect on reactivity with X-gal (55 strains; some strains)

NC1CCCCC1.O=C(O)[C@H]1O[C@@H](Oc2c[nH]c3cc(Cl)ccc23)[C@H](O)[C@@H](O)[C@@H]1O [Sal-Glucuro, 6-Cl-3-indolyl-β-D-glucuronide (CHA salt)]
gp: Colony Color ([9]; stag 12386, CO2, 24 h) | Colony Color ([9]; stag 12386, air, 24 h)
0: Colony Color ([1]; aehy 7965) | Colony Color ([1]; aehy 7966) | Colony Color ([1]; aehy 49847) | Colony Color ([2]; brca 25238) | Colony Color ([2]; brca 25240) | Colony Color (Candida albicans (caal); CO2) | Colony Color (Candida albicans (caal); air) | Colony Color ([3]; cifr 8454) | Colony Color ([3]; cifr 33128) | Colony Color ([4]; enfa 597, CO2, 21 h) | Colony Color ([4]; enfa 597, air, 21 h) | Colony Color ([4]; enfa 10741, CO2, 21 h) | Colony Color ([4]; enfa 10741, air, 21 h) | Colony Color ([4]; enfa 12953, CO2, 21 h) | Colony Color ([4]; enfa 12953, air, 21 h) | Colony Color ([4]; enfa 14506, CO2, 21 h) | Colony Color ([4]; enfa 14506, air, 21 h) | Colony Color ([4]; enfa 29212, CO2, 21 h) | Colony Color ([4]; enfa 29212, CO2, 24 h) | Colony Color ([4]; enfa 29212, air, 21 h) | Colony Color ([4]; enfa 29212, air, 24 h) | Colony Color (E. faecium (enfu); CO2) | Colony Color (E. faecium (enfu); air) | Colony Color ([5]; esco 11775, CO2, 21 h) | Colony Color ([5]; esco 25922, CO2, 24 h) | Colony Color ([5]; esco 25922, air, 24 h) | Colony Color ([5]; esco 33605, CO2, 21 h) | Colony Color ([6]; klpn 13883, CO2, 21 h) | Colony Color ([6]; klpn 33495, CO2, 24 h) | Colony Color ([6]; klpn 33495, air, 24 h) | Colony Color ([6]; klpn 33606, CO2, 21 h) | Colony Color ([7]; psae 9027) | Colony Color ([7]; psae 15442) | Colony Color ([7]; psae 33607) | Colony Color (Salmonella spp. (sasp); saty 19430) | Colony Color (Salmonella spp. (sasp); satym 14028) | Colony Color [8] | Colony Color ([9]; stag 4768, CO2, 21 h) | Colony Color ([9]; stag 4768, air, 21 h) | Colony Color ([9]; stag 12386, CO2, 21 h) | Colony Color ([10]; stau 1006, CO2, 21 h) | Colony Color ([10]; stau 1007, CO2, 21 h) | Colony Color ([10]; stau 1008, CO2, 21 h) | Colony Color ([10]; stau 1009, CO2, 21 h) | Colony Color ([10]; stau 25923, CO2, 24 h) | Colony Color ([10]; stau 25923, air, 24 h) | Colony Color ([11]; step 12228, CO2) | Colony Color ([11]; step 12228, air) | Colony Color ([11]; step cdc1, CO2) | Colony Color ([11]; step cdc1, air) | Colony Color ([11]; step cdc2, CO2) | Colony Color ([11]; step cdc2, air) | Colony Color ([11]; step cdc3, CO2) | Colony Color ([11]; step cdc3, air) | Colony Color ([11]; step cdc4, CO2) | Colony Color ([11]; step cdc4, air) | Colony Color (S. milleri (stmi); CO2) | Colony Color (S. milleri (stmi); air) | Colony Color (S. pneumoniae (stpn); stpn 1259, CO2, 21 h) | Colony Color (S. pneumoniae (stpn); stpn 1260, CO2, 21 h) | Colony Color (S. pneumoniae (stpn); stpn 1628, CO2, 21 h) | Colony Color (S. pneumoniae (stpn); stpn 6303, CO2, 24 h) | Colony Color (S. pneumoniae (stpn); stpn 6303, air, 24 h) | Colony Color (S. pneumoniae (stpn); stpn 6305, CO2, 24 h) | Colony Color (S. pneumoniae (stpn); stpn 6305, air, 24 h) | Colony Color (S pyogenes (stpy); stpy 1027, CO2) | Colony Color (S pyogenes (stpy); stpy 1028, CO2) | Colony Color (S pyogenes (stpy); stpy 1029, CO2) | Colony Color (S pyogenes (stpy); stpy 1030, CO2) | Colony Color (S pyogenes (stpy); stpy 19615, CO2) | Colony Color (S pyogenes (stpy); stpy 19615, air) | Colony Color (S pyogenes (stpy); stpy 49117, CO2) | Colony Color (S pyogenes (stpy); stpy 49117, air) | Colony Color (S pyogenes (stpy); stpy 51339, CO2) | Colony Color (S pyogenes (stpy); stpy 51339, air) | Colony Color (cakr 34135) | Colony Color (milu 9341)

Magenta-caprylate [M-Cap]
0: Colony Color ([1]; aehy 7965) | Colony Color ([1]; aehy 7966) | Colony Color ([1]; aehy 49847) | Colony Color (Summary) [1, 12] | Colony Color ([2]; brca 25238) | Colony Color ([2]; brca 25240) | Colony Color (Summary) [2, 13] | Colony Color (Candida albicans (caal); CO2) | Colony Color (Candida albicans (caal); air) | Colony Color (Summary) (Candida albicans (caal); [13]) | Colony Color (Summary) [3, 13] | Colony Color ([3]; cifr 8454) | Colony Color ([3]; cifr 33128) | Colony Color (Summary) [4, 14] | Colony Color ([4]; enfa 597, CO2, 21 h) | Colony Color ([4]; enfa 597, air, 21 h) | Colony Color ([4]; enfa 10741, CO2, 21 h) | Colony Color ([4]; enfa 10741, air, 21 h) | Colony Color ([4]; enfa 12953, CO2, 21 h) | Colony Color ([4]; enfa 12953, air, 21 h) | Colony Color ([4]; enfa 14506, CO2, 21 h) | Colony Color ([4]; enfa 14506, air, 21 h) | Colony Color ([4]; enfa 29212, CO2, 21 h) | Colony Color ([4]; enfa 29212, CO2, 24 h) | Colony Color ([4]; enfa 29212, air, 21 h) | Colony Color ([4]; enfa 29212, air, 24 h) | Colony Color (Summary) (E. faecium (enfu); [15]) | Colony Color (E. faecium (enfu); CO2) | Colony Color (E. faecium (enfu); air) | Colony Color (Summary) [5, 12] | Colony Color ([5]; esco 11775, CO2, 21 h) | Colony Color ([5]; esco 25922, CO2, 24 h) | Colony Color ([5]; esco 25922, air, 24 h) | Colony Color ([5]; esco 33605, CO2, 21 h) | Colony Color (Summary) [6, 12] | Colony Color ([6]; klpn 13883, CO2, 21 h) | Colony Color ([6]; klpn 33495, CO2, 24 h) | Colony Color ([6]; klpn 33495, air, 24 h) | Colony Color ([6]; klpn 33606, CO2, 21 h) | Colony Color (Summary) [7, 12] | Colony Color ([7]; psae 9027) | Colony Color ([7]; psae 15442) | Colony Color ([7]; psae 33607) | Colony Color (Summary) (Salmonella spp. (sasp); [13]) | Colony Color (Salmonella spp. (sasp); saty 19430) | Colony Color (Salmonella spp. (sasp); satym 14028) | Colony Color (Summary) [8, 15] | Colony Color [8] | Colony Color (Summary) [9, 12] | Colony Color ([9]; stag 4768, CO2, 21 h) | Colony Color ([9]; stag 4768, air, 21 h) | Colony Color ([9]; stag 12386, CO2, 21 h) | Colony Color ([9]; stag 12386, CO2, 24 h) | Colony Color ([9]; stag 12386, air, 24 h) | Colony Color (Summary) [10, 16] | Colony Color ([10]; stau 1006, CO2, 21 h) | Colony Color ([10]; stau 1007, CO2, 21 h) | Colony Color ([10]; stau 1008, CO2, 21 h) | Colony Color ([10]; stau 1009, CO2, 21 h) | Colony Color ([10]; stau 25923, CO2, 24 h) | Colony Color ([10]; stau 25923, air, 24 h) | Colony Color (Summary) [11, 16] | Colony Color ([11]; step 12228, CO2) | Colony Color ([11]; step 12228, air) | Colony Color ([11]; step cdc1, CO2) | Colony Color ([11]; step cdc1, air) | Colony Color ([11]; step cdc2, CO2) | Colony Color ([11]; step cdc2, air) | Colony Color ([11]; step cdc3, CO2) | Colony Color ([11]; step cdc3, air) | Colony Color ([11]; step cdc4, CO2) | Colony Color ([11]; step cdc4, air) | Colony Color (Summary) (S. milleri (stmi); [13]) | Colony Color (S. milleri (stmi); CO2) | Colony Color (S. milleri (stmi); air) | Colony Color (Summary) (S. pneumoniae (stpn); [14]) | Colony Color (S. pneumoniae (stpn); stpn 1259, CO2, 21 h) | Colony Color (S. pneumoniae (stpn); stpn 1260, CO2, 21 h) | Colony Color (S. pneumoniae (stpn); stpn 1331, CO2, 21 h) | Colony Color (S. pneumoniae (stpn); stpn 1628, CO2, 21 h) | Colony Color (S. pneumoniae (stpn); stpn 6303, CO2, 24 h) | Colony Color (S. pneumoniae (stpn); stpn 6303, air, 24 h) | Colony Color (S. pneumoniae (stpn); stpn 6305, CO2, 24 h) | Colony Color (S. pneumoniae (stpn); stpn 6305, air, 24 h) | Colony Color (Summary) (S pyogenes (stpy); [14]) | Colony Color (S pyogenes (stpy); stpy 1027, CO2) | Colony Color (S pyogenes (stpy); stpy 1028, CO2) | Colony Color (S pyogenes (stpy); stpy 1029, CO2) | Colony Color (S pyogenes (stpy); stpy 1030, CO2) | Colony Color (S pyogenes (stpy); stpy 19615, CO2) | Colony Color (S pyogenes (stpy); stpy 19615, air) | Colony Color (S pyogenes (stpy); stpy 49117, CO2) | Colony Color (S pyogenes (stpy); stpy 49117, air) | Colony Color (S pyogenes (stpy); stpy 51339, CO2) | Colony Color (S pyogenes (stpy); stpy 51339, air) | Colony Color (cakr 34135) | Colony Color (milu 9341)
inactive: Activity (color) for most organisms (55 strains; chromogenic TSA II)
